The values below are quoted from earlier work in patent EP1558263B1, “PROLONGED RELEASE PHARMACEUTICAL COMPOSITION” (Akzo Nobel N.V., priority 2002, dated 2004).

This data set concerns Mannheimia haemolytica. The note with it: pathogen of respiratory tract infections in cattle.

≈ marks a conversion by molar mass, not a printed value.

As usually defined, the MIC90 is an inhibitory concentration at the 90% level, which refers to growth in some studies and to a panel of isolates in others. With `CO/N=C(\C(=O)N[C@@H]1C(=O)N2C(C(=O)[O-])=C(C[n+]3cccc4c3CCCC4)CS[C@H]12)c1csc(N)n1` [Cefquinome, cefquinome], the MIC90 is given as 0.25 µg/mL (≈ 0.473 µM).
